Measurements: patent US6472391B2, “Nitrogen-containing heterocyclic compounds” (Millennium Pharmaceuticals, Inc., priority 1996, dated 2002)

| SMILES | melting point |
| --- | --- |
| CC(=O)c1ccc(NC(=O)N2CCN(c3ncnc4c(Cl)cccc34)CC2)cc1 [Compound 325, N-(4-Acetylphenyl)-4-(8-chloro-4-quinazolinyl)-1-piperazinecarboxamide] | 208 to 209 °C |
| COc1cccc2c(N3CCN(C(=O)Nc4ccc(C(C)C)cc4)CC3)ncnc12 [Compound 326, N-(4-Isopropylphenyl)-4-(8-methoxy-4-quinazolinyl)-1-piperazinecarboxamide] | 102 to 104 °C |
| COc1cccc2c(N3CCN(C(=O)Nc4ccc(Oc5ccccc5)cc4)CC3)ncnc12 [Compound 327, 4-(8-Methoxy-4-quinazolinyl)-N-(4-phenoxyphenyl)-1-piperazinecarboxamide] | 108 to 109 °C |
| COc1cccc2c(N3CCN(C(=O)Nc4ccc(C(C)=O)cc4)CC3)ncnc12 [Compound 328, N-(4-Acetylphenyl)-4-(8-methoxy-4-quinazolinyl)-1-piperazinecarboxamide] | 239 to 240 °C |
| O=C(Nc1ccc(Oc2ccccc2)cc1)N1CCN(c2ncnc3cc(F)c(F)cc23)CC1 [Compound 329, 4-(6,7-Difluoro-4-quinazolinyl)-N-(4-phenoxyphenyl)-1-piperazinecarboxamide] | 177 to 178 °C |
| Fc1cc2ncnc(N3CCN(C(=S)NCc4ccccc4)CC3)c2cc1F [Compound 330, N-Benzyl-4-(6,7-difluoro-4-quinazolinyl)-1-piperazinethiocarboxamide] | 119 to 120 °C |
| Fc1cc2ncnc(N3CCN(C(=S)NCc4cccnc4)CC3)c2cc1F [Compound 331, 4-(6,7-Difluoro-4-quinazolinyl)-N-(3-picolyl)-1-piperazinethiocarboxamide] | 177 to 178 °C |
| CCOc1cc2ncnc(N3CCN(C(=O)Nc4ccc(Oc5ccccc5)cc4)CC3)c2cc1F [Compound 332, 4-(7-Ethoxy-6-fluoro-4-quinazolinyl)-N-(4-phenoxyphenyl)-1-piperazinecarboxamide] | 197 to 198 °C |
| COc1cc2c(N3CCN(C(=O)Nc4ccc(Oc5ccccc5)cc4)CC3)ncnc2cc1C [Compound 333, 4-(6-Methoxy-7-methyl-4-quinazolinyl)-N-(4-phenoxyphenyl)-1-piperazinecarboxamide] | 188 to 189 °C |
| COc1cc2c(N3CCN(C(=O)Nc4ccc(C#N)cc4)CC3)ncnc2cc1C [Compound 334, N-(4-Cyanophenyl)-4-(6-methoxy-7-methyl-4-quinazolinyl)-1-piperazinecarboxamide] | 242 to 243 °C |
| CCOc1cc2ncnc(N3CCN(C(=O)Nc4ccc(Oc5ccccc5)cc4)CC3)c2cc1OC [Compound 335, 4-(7-Ethoxy-6-methoxy-4-quinazolinyl)-N-(4-phenoxyphenyl)-1-piperazinecarboxamide] | 174 to 175 °C |
| CCOc1cc2ncnc(N3CCN(C(=O)Nc4ccc(Br)cc4)CC3)c2cc1OC [Compound 336, N-(4-Bromophenyl)-4-(7-ethoxy-6-methoxy-4-quinazolinyl)-1-piperazinecarboxamide] | 210 to 212 °C |
| CCOc1cc2ncnc(N3CCN(C(=S)NCc4ccccc4)CC3)c2cc1OC [Compound 337, N-Benzyl-4-(7-ethoxy-6-methoxy-4-quinazolinyl)-1-piperazinethiocarboxamide] | 168 to 169 °C |
| CCOc1cc2ncnc(N3CCN(C(=S)NCc4cccnc4)CC3)c2cc1OC [Compound 338, 4-(7-Ethoxy-6-methoxy-4-quinazolinyl)-N-(3-picolyl)-1-piperazinethiocarboxamide] | 169 to 170 °C |
| COc1cc2c(N3CCN(C(=O)Nc4ccc(Oc5ccccc5)cc4)CC3)ncnc2cc1OC(C)C [Compound 339, 4-(7-Isopropoxy-6-methoxy-4-quinazolinyl)-N-(4-phenoxyphenyl)-1-piperazinecarboxamide] | 157 to 160 °C |
| COc1cc2c(N3CCN(C(=S)NCc4ccccc4)CC3)ncnc2cc1OC(C)C [Compound 341, N-Benzyl-4-(7-isopropoxy-6-methoxy-4-quinazolinyl)-1-piperazinethiocarboxamide] | 174 to 175 °C |
| COc1cc2c(N3CCN(C(=S)NCc4cccnc4)CC3)ncnc2cc1OC(C)C [Compound 342, 4-(7-Isopropoxy-6-methoxy-4-quinazolinyl)-N-(3-picolyl)-1-piperazinethiocarboxamide] | 205 to 206 °C |
| CCOc1cc2c(N3CCN(C(=O)Nc4ccc(Oc5ccccc5)cc4)CC3)ncnc2cc1OC [Compound 346, 4-(6-Ethoxy-7-methoxy-4-quinazolinyl)-N-(4-phenoxyphenyl)-1-piperazinecarboxamide] | 213 to 214 °C |
| CCOc1cc2c(N3CCN(C(=O)Nc4ccc(C#N)cc4)CC3)ncnc2cc1OC [Compound 347, N-(4-Cyanophenyl)-4-(6-ethoxy-7-methoxy-4-quinazolinyl)-1-piperazinecarboxamide] | 178 to 179 °C |
| CCOc1cc2c(N3CCN(C(=S)NCc4ccccc4)CC3)ncnc2cc1OC [Compound 348, N-Benzyl-4-(6-ethoxy-7-methoxy-4-quinazolinyl)-1-piperazinethiocarboxamide] | 170 to 171 °C |

| SMILES | melting point |
| --- | --- |
| CCOc1cc2c(N3CCN(C(=S)NCc4cccnc4)CC3)ncnc2cc1OC [Compound 349, 4-(6-Ethoxy-7-methoxy-4-quinazolinyl)-N-(3-picolyl)-1-piperazinethiocarboxamide] | 208 to 209 °C |
| COc1cc2ncnc(N3CCN(C(=O)Nc4ccc(Oc5ccccc5)cc4)CC3)c2cc1OS(C)(=O)=O [Compound 350, 4-(6-Mesyloxy-7-methoxy-4-quinazolinyl)-N-(4-phenoxyphenyl)-1-piperazinecarboxamide] | 228 to 229 °C |
| COc1cc2ncnc(N3CCN(C(=S)NCc4ccccc4)CC3)c2cc1OS(C)(=O)=O [Compound 351, N-Benzyl-4-(6-mesyloxy-7-methoxy-4-quinazolinyl)-1-piperazinethiocarboxamide] | 76 to 80 °C |
| CCOc1cc2ncnc(N3CCN(C(=O)Nc4ccc(C#N)cc4)CC3)c2cc1OCC [Compound 352, N-(4-Cyanophenyl)-4-(6,7-diethoxy-4-quinazolinyl)-1-piperazinecarboxamide] | 186 to 187 °C |
| CCOc1cc2ncnc(N3CCN(C(=S)NCc4ccccc4)CC3)c2cc1OCC [Compound 353, N-Benzyl-4-(6,7-diethoxy-4-quinazolinyl)-1-piperazinethiocarboxamide] | 134 to 136 °C |
| CCOc1cc2ncnc(N3CCN(C(=S)NCc4cccnc4)CC3)c2cc1OCC [Compound 354, 4-(6,7-Diethoxy-4-quinazolinyl)-N-(3-picolyl)-1-piperazinethiocarboxamide] | 90 to 92 °C |
| O=C(Nc1ccc(Oc2ccccc2)cc1)N1CCN(c2ncnc3cc(OCc4ccccc4)c(OCc4ccccc4)cc23)CC1 [Compound 355, 4-(6,7-Dibenzyloxy-4-quinazolinyl)-N-(4-phenoxyphenyl)-1-piperazinecarboxamide] | 137 to 138 °C |
| O=[N+]([O-])c1cc2c(N3CCN(C(=S)NCc4ccccc4)CC3)ncnc2cc1Cl [Compound 358, N-Benzyl-4-(7-chloro-6-nitro-4-quinazolinyl)-1-piperazinethiocarboxamide] | 93 to 95 °C |
| O=C(Nc1ccc(Oc2ccccc2)cc1)N1CCN(c2ncnc3cc4ccccc4cc23)CC1 [Compound 363, 4-(4-Benzo[g]quinazolinyl)-N-(4-phenoxyphenyl)-1-piperazinecarboxamide] | 105 to 108 °C |
| O=C(Nc1ccc([N+](=O)[O-])cc1)N1CCN(c2ncnc3cc4ccccc4cc23)CC1 [Compound 364, 4-(4-Benzo[g]quinazolinyl)-N-(4-nitrophenyl)-1-piperazinecarboxamide] | 272 to 275 °C |
| S=C(NCc1ccccc1)N1CCN(c2ncnc3cc4ccccc4cc23)CC1 [Compound 365, 4-(4-Benzo[g]quinazolinyl)-N-benzyl-1-piperazinethiocarboxamide] | 187 to 188 °C |
| O=C(Nc1ccc(Oc2ccccc2)cc1)N1CCN(c2ncnc3cc4c(cc23)OCO4)CC1 [Compound 367, 4-(6,7-Methylenedioxy-4-quinazolinyl)-N-(4-phenoxyphenyl)-1-piperazinecarboxamide] | 206 to 207 °C |
| O=C(Nc1ccc([N+](=O)[O-])cc1)N1CCN(c2ncnc3cc4c(cc23)OCO4)CC1 [Compound 368, 4-(6,7-Methylenedioxy-4-quinazolinyl)-N-(4-nitrophenyl)-1-piperazinecarboxamide] | 247 to 250 °C |
| N#Cc1ccc(NC(=O)N2CCN(c3ncnc4cc5c(cc34)OCO5)CC2)cc1 [Compound 369, N-(4-Cyanophenyl)-4-(6,7-methylenedioxy-4-quinazolinyl)-1-piperazinecarboxamide] | 220 to 222 °C |
| S=C(NCc1ccccc1)N1CCN(c2ncnc3cc4c(cc23)OCO4)CC1 [Compound 370, N-Benzyl-4-(6,7-methylenedioxy-4-quinazolinyl)-1-piperazinethiocarboxamide] | 176 to 177 °C |
| S=C(NCc1cccnc1)N1CCN(c2ncnc3cc4c(cc23)OCO4)CC1 [Compound 371, 4-(6,7-Methylenedioxy-4-quinazolinyl)-N-(3-picolyl)-1-piperazinethiocarboxamide] | 167 to 168 °C |
| O=C(Nc1ccc(Oc2ccccc2)cc1)N1CCN(c2ncnc3cc4c(cc23)OCCO4)CC1 [Compound 372, 4-(6,7-Ethylenedioxy-4-quinazolinyl)-N-(4-phenoxyphenyl)-1-piperazinecarboxamide] | 227 to 228 °C |
| N#Cc1ccc(NC(=O)N2CCN(c3ncnc4cc5c(cc34)OCCO5)CC2)cc1 [Compound 373, N-(4-Cyanophenyl)-4-(6,7-ethylenedioxy-4-quinazolinyl)-1-piperazinecarboxamide] | 246 to 247 °C |
| S=C(NCc1ccccc1)N1CCN(c2ncnc3cc4c(cc23)OCCO4)CC1 [Compound 374, N-Benzyl-4-(6,7-ethylenedioxy-4-quinazolinyl)-1-piperazinethiocarboxamide] | 103 to 105 °C |
| S=C(NCc1cccnc1)N1CCN(c2ncnc3cc4c(cc23)OCCO4)CC1 [Compound 375, 4-(6,7-Ethylenedioxy-4-quinazolinyl)-N-(3-picolyl)-1-piperazinethiocarboxamide] | 110 to 113 °C |
